What was measured:
[1] = test system: PIK3CA mutant and WT breast cancers; assay: Retrospective PFS analysis on endocrine therapy (aromatase inhibitor or fulvestrant); assay type: in vivo, human
Method: (§1) Retrospective PFS analysis was performed on tumors from a large breast cancer dataset (n=1918) sequenced by MSK-IMPACT ((Razavi et al., Cancer Cell 34, 427-438 e426 (2018)). Tumors were included in analysis if both pre- and post-endocrine therapy (aromatase inhibitor or fulvestrant) biopsies confirmed WT, single PIK3CA mutation, or multiple PIK3CA mutations. Kaplan-Meier curves were generated for PFS after firstline aromatase inhibitor or firstline fulvestrant therapy. PFS analysis was performed on patients enrolled in NCT01870505, a phase 1 clinical trial of alpelisib plus letrozole or exemestane for patients with hormone-receptor positive locally-advanced unresectable or metastatic breast cancer. 46/51 patients had biopsy samples that confirmed PIK3CA mutant or WT alleles by tumor NGS, and these 46 patients were included in the final analysis.

[2] = biological target: p85α regulatory subunit of PI3Kα (PIK3R1), full length human, hexahistidine-tagged at the N-terminus (UniProt P27986)
[3] = test system: PIK3CA mutant MCF10A cells; assay: Cell viability / cell inhibition by PI3K inhibitors (CellTiter-Glo, dose-response survival); settings: for sensitivity of cell growth to PI3Kα inhibition: E545K and H1047R major hotspot mutants compared to minor mutants and WT
[4] = test system: recombinant single and cis mutant PI3Kα complexes; assay: IC50 determination of recombinant PI3K (Transcreener ADP2 fluorescence intensity assay); settings: among the recombinant single and cis mutant PI3Kα complexes
[5] = test system: metastatic ER-positive PIK3CA mutant breast cancer; assay: […] phase III clinical trial of taselisib with fulvestrant, ctDNA PIK3CA analysis; assay type: in vivo, human; settings: for overall response rate: taselisib arm (with fulvestrant)
Description: The present disclosure investigated the effects of multiple PIK3CA mutations on clinical response to PI3Kα inhibitors in metastatic breast cancer. The present disclosure analyzed response data from […], a phase III registrational clinical trial that tested the efficacy of the PI3Kα inhibitor taselisib (GDC-0032), with fulvestrant (an estrogen receptor [ER] degrader) in metastatic ER-positive PIK3CA mutant breast cancer. This is the largest randomized clinical study testing a PI3Kα inhibitor (631 patients).
Many patients with metastatic ER-positive breast cancer enrolled in this trial had bone metastases, which must be decalcified to be analyzed by NGS, which render DNA sequencing particularly challenging (Singh et al., Ann Diagn Pathol 17, 322-326 (2013)). Thus, the present disclosure used circulating tumor DNA (ctDNA), which has been utilized in many breast cancer clinical trials (Baselga et al., Lancet Oncol 18, 904-916 (2017); Andre et al., N Engl J Med 380, 1929-1940 (2019); Baselga et al., N Engl J Med 366, 520-529 (2012); Turner et al., N Engl J Med 373, 209-219 (2015)), to detect the presence of multiple mutations. Of the 631 patients on the trial, 598 had plasma samples available for analysis, of which 508 were adequate for testing (FIG. 19A). Samples were tested using the Foundation One liquid assay, which sequences the entire PIK3CA gene. Of the 339 patients with detected PIK3CA mutations, 66 (19%) had 2 or more PIK3CA mutations.
For analysis of the […] clinical trial (Baselga, Journal of Clinical Oncology, 2018, 36, no. 18_suppl.) patient ctDNA samples (n=631), 508 patient samples met quality control parameters and were analyzed by Foundation Medicine One Liquid assay (Clark et al., J Mol Diagn 20, 686-702 (2018)) which sequences […] of PIK3CA and can detect mutations at amino acid positions 545, 1047, 453, 726, and 1043 (FIG. 24). 339 samples were identified with PIK3CA mutations, of which 66 contained two or more PIK3CA mutations. Patients with measurable disease from the ctDNA PIK3CA mutant cohort, on the taselisib arm, were analyzed based on the percentage change in the sum of longest diameter (SLD) of target lesion from baseline, and were tabulated by waterfall plot. Patients with both measurable and nonmeasurable disease from the ctDNA PIK3CA mutant cohort were assessed on the placebo and taselisib arms for overall response rate (defined as tumor shrinkage >30%). 95% CI for rates were constructed using the Blyth-Still-Casella method. The CI for the difference in ORRs between the two treatment arms were determined using the normal approximation to the binomial distribution. Response rates in the treatment arms were compared (p-value) using the stratified Cochran-Mantel-Haenszel test.

[6] = test system: PI3K pathway signaling in PIK3CA mutant NIH-3T3 cells; assay: Western blotting of PI3K effectors, NIH-3T3 cells; assay type: cell-based, mouse; settings: BYL719 1 μM, 24 hours, serum starvation, vs single mutant cells
[7] = test system: ER+ metastatic breast cancer; assay: Phase 1 clinical trial NCT01870505 of alpelisib (BYL719) plus aromatase inhibitor, PFS analysis; assay type: in vivo, human; settings: with an aromatase inhibitor; for progression free survival: tumor NGS (FIG. 18C); for PFS (duration of response to PI3K inhibition): tumor and ctDNA NGS (FIG. 17E)
Method: Progression-free survival analysis was performed on patients enrolled in NCT01870505, a phase I clinical trial of BYL719 (alpelisib) plus letrozole or exemestane for patients (n=51) with hormone-receptor positive locally-advanced unresectable or metastatic breast cancer. 44/51 patients were analyzed for NGS of their tumors (MSK-IMPACT) and/or NGS of their ctDNA (Guardant) and were included in the analysis. Progression free survival was calculated and was compared between dual and single mutant patients. Clinical benefit rates (complete response, partial response or stable disease) were calculated and were compared between dual and single mutant patients using Fisher's exact test.
as §1

[8] = test system: PI3K pathway signaling in PIK3CA mutant MCF10A cells; assay: Western blotting of PI3K effectors, MCF10A cells; settings: BYL719 1 μM, 24 hours, serum starvation, vs single mutant cells

Sequence of p85α regulatory subunit of PI3Kα (PIK3R1), full length human, hexahistidine-tagged at the N-terminus (P27986 whole entry, looked up, tested part not stated): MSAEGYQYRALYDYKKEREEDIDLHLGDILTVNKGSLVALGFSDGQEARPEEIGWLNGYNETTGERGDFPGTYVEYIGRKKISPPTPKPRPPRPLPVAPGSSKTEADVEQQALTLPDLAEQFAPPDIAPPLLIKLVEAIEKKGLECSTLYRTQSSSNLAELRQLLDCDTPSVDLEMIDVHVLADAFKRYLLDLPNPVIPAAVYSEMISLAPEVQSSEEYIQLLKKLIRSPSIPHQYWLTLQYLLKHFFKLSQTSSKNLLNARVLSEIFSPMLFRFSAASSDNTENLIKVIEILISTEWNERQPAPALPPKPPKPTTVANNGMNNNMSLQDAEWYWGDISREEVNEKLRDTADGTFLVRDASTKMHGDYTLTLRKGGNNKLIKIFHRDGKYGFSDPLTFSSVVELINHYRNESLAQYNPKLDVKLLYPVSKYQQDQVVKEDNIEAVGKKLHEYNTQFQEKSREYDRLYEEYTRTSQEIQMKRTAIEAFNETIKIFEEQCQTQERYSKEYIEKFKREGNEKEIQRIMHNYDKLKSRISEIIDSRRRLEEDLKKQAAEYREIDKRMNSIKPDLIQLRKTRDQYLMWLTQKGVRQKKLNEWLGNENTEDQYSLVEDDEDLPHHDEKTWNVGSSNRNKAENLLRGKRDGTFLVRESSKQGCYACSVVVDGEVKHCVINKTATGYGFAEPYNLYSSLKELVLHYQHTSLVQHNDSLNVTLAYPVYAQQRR

Molecule: C[C@]12CC[C@@H]3c4ccc(O)cc4C[C@@H](CCCCCCCCC[S+]([O-])CCCC(F)(F)C(F)(F)F)[C@H]3[C@@H]1CC[C@@H]2O (stereo partly drawn) [fulvestrant]
- PFS of dual mutant patients vs patients with WT tumors ([1]; fulvestrant): worse PFS
- PFS of patients with dual PIK3CA-mutant tumors vs single mutant or WT tumors ([1]; fulvestrant alone): do not have improved

Molecule: p110α E545K, untagged, full length human
- thermal shift assay (soluble p110α by Western blot across a temperature gradient) [2]: Among single mutants, E545K is the most thermally unstable

Molecule: CO[C@H]1C[C@@H]2CC[C@@H](C)[C@@](O)(O2)C(=O)C(=O)N2CCCC[C@H]2C(=O)O[C@H]([C@H](C)C[C@@H]2CC[C@@H](OCCO)[C@H](OC)C2)CC(=O)[C@H](C)/C=C(\C)[C@@H](O)[C@@H](OC)C(=O)[C@H](C)C[C@H](C)/C=C/C=C/C=C/1C [everolimus]
- sensitivity to downstream PI3K pathway inhibitor ([3]; MCF10A, cis mutants compared to single mutants, serum starvation 4 days): more sensitive

Molecule: C[C@H](Nc1ccc2c(c1)OCCn1cc(N3C(=O)OC[C@H]3C(F)F)nc1-2)C(N)=O [GDC-0077]
- IC50 values, recombinant PI3Kα complexes [4]: similar
- sensitivity of cell growth to PI3Kα inhibition ([3]; MCF10A): more sensitive
- IC50 ([3]; read-out: IC50 [GDC-0077] of MCF10A E545K cells, MCF10A E545K cells, per FIG. 6G): 0.0625 µM

Molecule: Cc1nc(-c2cn3c(n2)-c2ccc(-c4cnn(C(C)(C)C(N)=O)c4)cc2OCC3)n(C(C)C)n1 [taselisib]
- overall response rate ([5]; ctDNA PIK3CA mutant total population): 20.3%
- overall response rate ([5]; multiple ctDNA PIK3CA mutant subpopulation): 30.2%
- overall response rate ([5]; single ctDNA PIK3CA mutant subpopulation): 18.1%
- tumor shrinkage, multiple vs single mutant tumors ([5]; taselisib arm, waterfall plot (FIG. 19B)): tumor shrinkage more

Molecule: Cc1nc(NC(=O)N2CCC[C@H]2C(N)=O)sc1-c1ccnc(C(C)(C)C(F)(F)F)c1 [alpelisib]
- compound mutant PI3K pathway signaling on PI3K inhibition [6]: decreases to similar levels
- progression free survival ([7]; WT PIK3CA tumors): 7.5 weeks
- progression free survival ([7]; double PIK3CA mutant tumors): 48 weeks
- PFS (duration of response to PI3K inhibition) ([7]; dual PIK3CA mutant patients): 48 weeks
- patients with clinical benefit rate >30 weeks ([7]; dual mutant tumors, p=0.044 vs single): 67%
- PFS (duration of response to PI3K inhibition) ([7]; single PIK3CA mutant patients): 17 weeks
- progression free survival ([7]; single PIK3CA mutant tumors): 20 weeks
- patients with clinical benefit rate >30 weeks ([7]; single mutant tumors): 23%
- median PFS, double mutant vs single mutant or WT tumors ([7]; not statistically significant): longer median PFS
- compound mutant PI3K pathway signaling on PI3K inhibition [8]: decreases to similar levels
- IC50 values, recombinant PI3Kα complexes [4]: similar
- cell viability ([3]; Example 1, compound PIK3CA mutants vs single mutants): more significant decrease in cell viability
- sensitivity of mutations in trans ([3]; MCF10A E726K/H1047R in trans compared to cis mutants): less sensitive
- sensitivity of mutations in trans ([3]; MCF10A E726K/H1047R in trans compared to the single major mutant): no more sensitive
- sensitivity of cell growth to PI3Kα inhibition ([3]; MCF10A): more sensitive
- fold of inhibition of cell growth ([3]; MCF10A, E545K- and H1047R-containing compound mutants vs single mutants): increased fold of inhibition

— patent US20210189503A1, “BIOMARKERS FOR DETERMINING RESPONSIVENESS OF A CANCER TO PI3K INHIBITORS” (MEMORIAL SLOAN-KETTERING CANCER CENTER, priority 2018, published 2021)
